Experimental data reported in article PMC9693464 (Toxins, 2022).
Marks after values point to notes of the source that are not given here.

Tests used:
[1] = tested on: MoAb MNV80 (IgG1, κ); assay type: binding, mouse
[2] = tested on: MoAb MNV87 (IgG1, κ); assay type: binding, mouse
[3] = tested on: PoAbs (anti-NIV polyclonal antibodies, mouse serum); assay type: binding
[4] = cited from earlier work
[5] = tested on: monoclonal antibody (MoAb) prepared by Maragos et al.; settings: cited from earlier work
[6] = tested on: animals; settings: cited from earlier work

With 4-acetylnivalenol [4-Ac-NIV] the “IC50 (fifty percent inhibitory concentration) with MoAb MNV80” value [1] was over 1 µg/mL, the “reactivity with MNV80 (in words)” value [1] was “not” and the “IC50 (fifty percent inhibitory concentration) with MoAb MNV87” value [2] was over 1 µg/mL. The “reactivity with MNV87 (in words)” value [2] was “not” and the “IC50 (fifty percent inhibitory concentration) with PoAb” value [3] was over 1000 ng/mL.
For `CC(=O)O[C@@H]1C[C@]2(C)[C@@]3(CO)[C@H](O)C(=O)C(C)=C[C@H]3O[C@H]1[C@@]21CO1` [3-Ac-DON, 3-acetyldeoxynivalenol], the “IC50 (fifty percent inhibitory concentration) with MoAb MNV80” value [1] was over 1 µg/mL and the “IC50 (fifty percent inhibitory concentration) with MoAb MNV87” value [2] was over 1 µg/mL.
For `CC(=O)OC[C@]12[C@H](O)C(=O)C(C)=C[C@H]1O[C@@H]1[C@H](O)C[C@@]2(C)[C@]12CO2` [15-Ac-DON, 15-acetyldeoxynivalenol], the “IC50 (fifty percent inhibitory concentration) with MoAb MNV80” value [1] was over 1 µg/mL and the “IC50 (fifty percent inhibitory concentration) with MoAb MNV87” value [2] was over 1 µg/mL.
In the case of `CC(=O)OC[C@]12[C@H](O)C(=O)C(C)=C[C@H]1O[C@@H]1[C@H](O)[C@@H](O)[C@@]2(C)[C@]12CO2` [15-Ac-NIV, 15-acetylnivalenol], the “IC50 (fifty percent inhibitory concentration) with MoAb MNV80” value [1] is reported as 0.018 µg/mL, the “fold lower IC50 than that with NIV, MNV80” value [1] is reported as 2 fold and the “reaction range, concentrations between the IC20 and IC80 values, MNV80” value [1] is reported as 0.0028 to 0.1 µg/mL. The “reactivity with MNV80 (in words)” value [1] was “specifically reacted”, the “IC50 (fifty percent inhibitory concentration) with MoAb MNV87” value [2] was 0.018 µg/mL and the “fold lower IC50 than that with NIV, MNV87” value [2] was 2 fold. For the same molecule, the “reaction range, concentrations between the IC20 and IC80 values, MNV87” value [2] was 0.0024 to 0.095 µg/mL, the “reactivity with MNV87 (in words)” value [2] was “specifically reacted” and the “IC50 (fifty percent inhibitory concentration) with PoAb” value [3] was 11 ng/mL. For the same molecule, the “fold lower IC50 than that with NIV, PoAbs” value [3] was 6.4 fold and the “reaction range, concentrations between the IC20 and IC80 values, PoAbs” value [3] was 0.0017 to 0.085 µg/mL.
For `CC1=C[C@H]2O[C@@H]3[C@H](O)C[C@](C)([C@@]2(CO)[C@H](O)C1=O)[C@]31CO1` [DON, deoxynivalenol], the “IC50 (fifty percent inhibitory concentration) with MoAb MNV80” value [1] was over 1 µg/mL, the “reactivity with MNV80 (in words)” value [1] was “not” and the “IC50 (fifty percent inhibitory concentration) with MoAb MNV87” value [2] was over 1 µg/mL. The “reactivity with MNV87 (in words)” value [2] was “not”, the “IC50 (fifty percent inhibitory concentration) with PoAb” value [3] was over 1000 ng/mL and the “temporary tolerable daily intake level” value ([4]; LOAEL with a safety factor of 1000) was 1.0 μg/kg body weight.
For `CC1=C[C@H]2O[C@@H]3[C@H](O)[C@@H](O)[C@](C)([C@@]2(CO)[C@H](O)C1=O)[C@]31CO1` [NIV, nivalenol], the “IC50 (fifty percent inhibitory concentration) with MoAb MNV80” value [1] was 0.036 µg/mL, the “reaction range, concentrations between the IC20 and IC80 values, MNV80” value [1] was 0.0069 to 0.18 µg/mL and the “reactivity with MNV80 (in words)” value [1] was “specifically reacted”. For the same molecule, the “cross-reactivity compared to reactivity with DON” value [5] was 57.4%, the “toxicity to animals compared with DON (in words)” value [6] was “more toxic to animals than DON” and the “IC50 (fifty percent inhibitory concentration) with MoAb MNV87” value [2] was 0.037 µg/mL. For the same molecule, the “reaction range, concentrations between the IC20 and IC80 values, MNV87” value [2] was 0.0071 to 0.17 µg/mL, the “reactivity with MNV87 (in words)” value [2] was “specifically reacted” and the “IC50 (fifty percent inhibitory concentration) with PoAb” value [3] was 70 * ng/mL. For the same molecule, the “IC50 of PoAb after the 1st booster immunization” value [3] was 1.4 µg/mL, the “reaction range, concentrations between the IC20 and IC80 values, PoAbs” value [3] was 0.012 to 0.95 µg/mL and the “lowest observed adverse effect level” value [4] was 0.7 mg/kg body weight per day.
